In patent US6124352A (priority 1994, dated 2000):
In brackets after ≈: the same amount, converted by molar mass.

Columns and labels:
Candida albicans [1] = assay: In Vitro fungicidal test (number of colonies/plate); details: for Number of Colonies/Plate, Plate No. 1 / Number of Colonies/Plate, Plate No. 2 / Number of Colonies/Plate, Plate No. 3 / Number of Colonies/Plate, Plate No. 4 / Number of Colonies/Plate, Plate No. 5 / Number of Colonies/Plate, Plate No. 6 / Number of Colonies/Plate, Plate No. 7 / Number of Colonies/Plate, Plate No. 8 / Number of Colonies/Plate, Plate No. 9: drug final concentration 0.1 mg/ml, 80 min at 30° C., plates 48 hours; for Number of Colonies/Plate, Plate No. 1: plate 1; for Number of Colonies/Plate, Plate No. 2: plate 2; for Number of Colonies/Plate, Plate No. 3: plate 3; for Number of Colonies/Plate, Plate No. 4: plate 4; for Number of Colonies/Plate, Plate No. 5: plate 5; for Number of Colonies/Plate, Plate No. 6: plate 6; for Number of Colonies/Plate, Plate No. 7: plate 7; for Number of Colonies/Plate, Plate No. 8: plate 8; for Number of Colonies/Plate, Plate No. 9: plate 9
Protocol: The 10% wlw malt extract, 2% agar solution used for plating in this test was prepared by mixing 100 g malt extract, 20 g agar, and a pellet of sodium hydroxide (about 0.1 g) in 1 liter of distilled, deionized water (DDW). This solution was sterilized by autoclaving, and then poured into plates.
The yeast-malt (YM) broth was composed of 3 g yeast extract, 3 g malt extract, 5 g peptone, and 10 g glucose in 1 liter DDW. The solution was brought to pH 7.2 with inorganics (e.g., hydrochloric acid or sodium hydroxide), then sterilized by autoclaving.
Stock solutions of the drugs to be tested were made in a mixture of dimethylformamide (DMF) and 0.05 M phosphate buffer at pH 7.2, combined in a 4:6 ratio of DME to buffer. Test solutions of 1 mg/ml solutions were prepared.
Two control solutions were prepared. One was the phosphate buffer as described above, the other was a mixture of DMF and the buffer in a 4:6 ratio as described above.
All drug and control solutions were sterilized by filtration through a 0.2 g filter.

Pneumocystis carinii = Pneumocystis carinii short term culture, viability by incorporation of [3H] para-aminobenzoic acid; assay type: cell-based; details: fungus removed from rat lungs, read-out: IC50 against Pneumocystis carinii
Protocol: (§1) In comparison, the IC50 of pentamidine, the agent now widely used to counter P. carinii fungus infections, was 2 μg/ml.

Candida albicans [2] = assay: Relative in vitro efficacy (growth inhibition of Candida albicans on agar replicate plates); assay type: cell-based; details: 100-150 cells of Candida albicans plated on replicate agar plates containing 15 μg of compound
Protocol: These relative efficacy numbers were obtained by plating 100-150 cells of Candida albicans on replicate agar plates containing 15 μg of the named compound and by determining the relative growth inhibition of each compound.

mice [3] = assay: Acute intravenous toxicity (LD50); assay type: in vivo; details: one intravenous dose, observed for 14 days
Protocol: (§2) The acute intravenous toxicity of 3,5-dibromo-2,6-dinitrobenzoic acid in mice is assessed by determining the mean lethal dose (LD50) using a well-known method. Mice are fed a standard laboratory diet for 8-10 weeks. Five animals of each sex are administered one intravenous dose of 3,5-dibromo-[…] acid. The animals are observed for 14 days, and the number of deaths noted.

Candida albicans [4] = assay: Serial Dilution Assay, Candida albicans; assay type: cell-based; details: 24 hours at 30°, OD 600 nm
Protocol: (§3) Serial dilution assays of 3,5-dibromo-2,6-dinitrobenzoic acid and nystatin were performed on Candida albicans, Trichophyton or Asperigillus. 9 ml (1×10^4 cells) of each diluted yeast suspension was added to 1 ml of various serial dilutions of the drug to be tested in 15 ml centrifuge tubes. The final drug concentrations ranged from 0.1 to 0.0001 mg/ml. Two control tubes were also prepared using DDW instead of a drug solution. The tubes were capped and incubated for 24 hours at 30° with shaking at 200 rpm. The fungal growth was assessed by measuring optical density at 600 nm using a nephelometer.

Trichophyton = assay: Serial Dilution Assay, Trichophyton; assay type: cell-based; details: 24 hours at 30°, OD 600 nm
Protocol: as §3

Asperigillus = assay: Serial Dilution Assay, Aspergillus; assay type: cell-based
Protocol: as §3

[5] = Acute intravenous toxicity (LD50); assay type: in vivo; details: mouse, in vivo; mice, one intravenous dose, observed for 14 days
Protocol: as §2

mice [6] = details: mouse, in vivo; cited from earlier work
[7] = system: nine fungal strains (Candida spp., Cryptococcus neoformans, Aspergillus fumigatus); assay: Minimum inhibitory concentration, first independent laboratory (broth); assay type: cell-based; details: HR/Mops broth and Sabouraud dextrose broth
Protocol: Additional in vitro evaluation of the antifungal activity of the compounds was performed by two independent testing laboratories. One laboratory found the minimum inhibitory concentration (μg/ml), in fungal strains, of 3,5-dichloro-2,6-dinitrobenzoic acid to range from 1.56 to 6.3 when nine fungal strains (Candida spp., Cryptococcus neoformans, Aspergillus fumigatus) were tested in HR/Mops broth and Sabouraud dextrose broth.

wide range of fungi = assay: Minimum inhibitory concentration, second independent laboratory (standard agar dilution method), fungi; assay type: cell-based; details: Isosensitest agar
Protocol: (§4) The second laboratory compared the minimum inhibitory concentrations (μg/ml) of 3,5-dichloro-2,6-dinitrobenzoic acid and Amphotericin B, an antifungal agent. The strains were plated, in the standard agar dilution method, on Isosensitest agar containing a single antifungal agent. […] As such, when Amphotericin B is tested in agar, its activity appears higher than it would in vivo.

bacteria = assay: Activity against bacteria, second independent laboratory (standard agar dilution method); assay type: cell-based; details: Isosensitest agar
Protocol: as §4

C. albicans C316 = assay: Stability and activity against C. albicans C316 in various broth media; assay type: cell-based; details: even in the presence of 50% mouse serum
Protocol: as §1

Water solubility = assay type: physicochemical; details: in words
[8] = read-out: final concentration at which fungal growth was completely inhibited

Molecule | Number of Colonies/Plate, Plate No. 1 (Candida albicans [1]) | Number of Colonies/Plate, Plate No. 2 (Candida albicans [1]) | Number of Colonies/Plate, Plate No. 3 (Candida albicans [1]) | Number of Colonies/Plate, Plate No. 4 (Candida albicans [1]) | Number of Colonies/Plate, Plate No. 5 (Candida albicans [1]) | Number of Colonies/Plate, Plate No. 6 (Candida albicans [1]) | Number of Colonies/Plate, Plate No. 7 (Candida albicans [1]) | Number of Colonies/Plate, Plate No. 8 (Candida albicans [1]) | Number of Colonies/Plate, Plate No. 9 (Candida albicans [1]) | Relative In Vitro Efficacy (Candida albicans [2]) | other results
CC(=O)N1CCN(c2ccc(OCC3COC(Cn4ccnc4)(c4ccc(Cl)cc4Cl)O3)cc2)CC1 (centres unmarked) [Ketoconazole, ketoconazole] | 82 | 39 | 37 | 94 | 103 | 78 | 120 | 122 | 95 |  | 
N=C(N)c1ccc(OCCCCCOc2ccc(C(=N)N)cc2)cc1 [pentamidine, reference compound] |  |  |  |  |  |  |  |  |  |  | IC50 (Pneumocystis carinii): 2 µg/mL (≈ 5.87 µM)
COC(=O)c1c([N+](=O)[O-])c(Br)cc(Br)c1[N+](=O)[O-] [Example 4, methyl 3,5-dibromo-2,6-dinitrobenzoate] |  |  |  |  |  |  |  |  |  | 4 | 
2,4-dibromo-3,5-dinitrobenzoic acid |  |  |  |  |  |  |  |  |  |  | LD50 (mice [3]): 240 mg/kg
O=C(O)c1cc([N+](=O)[O-])c(Cl)c([N+](=O)[O-])c1Cl [2,4-dicholoro-3,5-dinitro benzoic acid] |  |  |  |  |  |  |  |  |  | 10 | 
O=C(O)c1c([N+](=O)[O-])c(Br)cc(Br)c1[N+](=O)[O-] [Example 1, 3,5-dibromo-2,6-dinitrobenzoic acid] |  |  |  |  |  |  |  |  |  | 100 | MIC (Candida albicans [4]; [8]): 1.5 µg/mL (≈ 4.06 µM); MIC (Trichophyton; [8]): 1.5 µg/mL (≈ 4.06 µM); MIC (Asperigillus; 24 h, read-out: final concentration at which fungal growth was completely inhibited): 1.5 µg/mL (≈ 4.06 µM); LD50 at 336 h [5]: ~240 mg/kg
C[C@@H]1[C@H](O)[C@@H](C)/C=C/C=C/CC/C=C/C=C/C=C/C=C/C(O[C@H]2O[C@H](C)[C@@H](O)[C@H](N)[C@@H]2O)CC2O[C@](O)(CC(O)C(O)CCC(O)CC(O)CC(O)CC(=O)O[C@H]1C)CC(O)C2C(=O)O (some centres unmarked) [nystatin, reference compound] |  |  |  |  |  |  |  |  |  |  | final concentration at which fungal growth was completely inhibited (Candida albicans [4]): 1.5 µg/mL; final concentration at which fungal growth was completely inhibited (Trichophyton): 1.5 µg/mL; final concentration at which fungal growth was completely inhibited (Asperigillus; Asperigillus, 24 hours at 30°, OD 600 nm): 1.5 µg/mL; toxicity compared with the compound of the invention tested (mice [6]): significantly higher toxicity than the compound of the invention tested
O=C(O)c1c([N+](=O)[O-])c(Cl)cc(Cl)c1[N+](=O)[O-] [Example 2, 3,5-dichloro-2,6-dinitrobenzoic acid] | 22 | 4 | 3 | 31 | 28 | 33 | 20 | 19 | 25 | 100 | MIC [7]: 1.56 to 6.3 µg/mL (≈ 5.55 to 22.4 µM); fungal inhibition compared with Amphotericin B (wide range of fungi; agar-plate conditions optimized for Amphotericin B): less fungal inhibition than Amphotericin B; MIC (wide range of fungi; wide range of fungi): 4 to 31 µg/mL (≈ 14.2 to 110 µM); activity against bacteria (bacteria): not against bacteria; stability and activity against C. albicans C316 (C. albicans C316): remained stable and active; IC50 (Pneumocystis carinii): 17 µg/mL (≈ 60.5 µM); water solubility (Water solubility): water soluble; fungicidal activity relative to amphotericin B (Candida albicans [1]; from Table 2): about twice as effective as amphotericin B; fungicidal activity relative to ketoconazole (Candida albicans [1]; from Table 2): about four times as effective as ketoconazole
C[C@@H]1[C@H](O)[C@@H](C)/C=C/C=C/C=C/C=C/C=C/C=C/C=C/[C@H](O[C@@H]2O[C@H](C)[C@@H](O)[C@H](N)[C@@H]2O)C[C@@H]2O[C@](O)(C[C@@H](O)C[C@@H](O)[C@H](O)CC[C@@H](O)C[C@@H](O)CC(=O)O[C@H]1C)C[C@H](O)[C@H]2C(=O)O [Amphotericin B, amphotericin B] | 50 | 15 | 9 | 56 | 51 | 48 | 55 | 65 | 64 |  | 
